Experimental data published in ChEMBL document CHEMBL3351597, “Synthesis and activity of new triphenylphosphonium derivatives of betulin and betulinic acid against Schistosoma mansoni in vitro and in vivo” (Bioorg Med Chem, 2014).
Activity calls are given as the source filed them. No cut-off for these calls is given here.

Columns and labels:
Schistosoma mansoni [1] = assay: Antischistosomal activity against newly transformed Schistosoma mansoni assessed as death at 8.33 microg/ml after 72 hrs; format: functional, organism-based
Schistosoma mansoni [2] = assay: Antischistosomal activity against newly transformed Schistosoma mansoni assessed as death at 2.78 microg/ml after 72 hrs; format: functional, organism-based
Schistosoma mansoni [3] = assay: Antischistosomal activity against newly transformed Schistosoma mansoni assessed as decrease in viability after 72 hrs; format: functional, organism-based
L6 = assay: Cytotoxicity against rat L6 cells after 24 hrs by Resazurin dye; format: cell-based; settings: L6, 24 h
Schistosoma mansoni [4] = assay: Antischistosomal activity against Schistosoma mansoni infected in NMRI mouse assessed as reduction of total worm burden at 400 mg/kg, po treated after 49 days of infection measured after 21 days post treatment; format: functional
Schistosoma mansoni [5] = assay: Antischistosomal activity against Schistosoma mansoni infected in NMRI mouse assessed as reduction of female worm burden at 400 mg/kg, po treated after 49 days of infection measured after 21 days post treatment; format: functional
Schistosoma mansoni [6] = assay: Antischistosomal activity against Schistosoma mansoni infected in NMRI mouse assessed as mouse cured at 400 mg/kg, po treated after 49 days of infection measured after 21 days post treatment; format: functional, organism-based; parameters: dose 400 mg/kg

Compound	Activity (Schistosoma mansoni [1])	IC50 (Schistosoma mansoni [3]) [µg/mL]	Activity (Schistosoma mansoni [3])	other results
C=C(C[P+](c1ccccc1)(c1ccccc1)c1ccccc1)[C@@H]1CC[C@]2(COC(C)=O)CC[C@]3(C)[C@H](CC[C@@H]4[C@@]5(C)CC[C@H](OC(C)=O)C(C)(C)[C@@H]5CC[C@]43C)[C@@H]12.[Br-]	Active	0.64		Activity (Schistosoma mansoni [2]): Active; IC50 (L6): 0.64 µg/mL; inhibition in vivo at 400 mg/kg (Schistosoma mansoni [4]): 22.2%; inhibition in vivo at 400 mg/kg (Schistosoma mansoni [5]): 20.3%; Activity (Schistosoma mansoni [6]): inactive
COC(=O)[C@]12CC[C@@H](C(C)C)[C@@H]1[C@H]1CC[C@@H]3[C@@]4(C)C[C@H](CCC[P+](c5ccccc5)(c5ccccc5)c5ccccc5)[C@@H](O)C(C)(C)[C@@H]4CC[C@@]3(C)[C@]1(C)CC2			Active	
C=C(C[P+](c1ccccc1)(c1ccccc1)c1ccccc1)[C@@H]1CC[C@]2(C(=O)OC)CC[C@]3(C)[C@H](CC[C@@H]4[C@@]5(C)CC[C@H](OC(C)=O)C(C)(C)[C@@H]5CC[C@]43C)[C@@H]12.[Br-]	Active	0.76		Activity (Schistosoma mansoni [2]): Active; inhibition in vivo at 400 mg/kg (Schistosoma mansoni [4]): 21.9%; inhibition in vivo at 400 mg/kg (Schistosoma mansoni [5]): 24.8%; Activity (Schistosoma mansoni [6]): inactive
COC(=O)[C@]12CC[C@@H](C(C)C)[C@@H]1[C@H]1CC[C@@H]3[C@@]4(C)C[C@H](CCC[P+](c5ccccc5)(c5ccccc5)c5ccccc5)[C@H](O)C(C)(C)[C@@H]4CC[C@@]3(C)[C@]1(C)CC2			Active	
COC(=O)[C@]12CC[C@@H](C(C)CI)[C@@H]1[C@H]1CC[C@@H]3[C@@]4(C)C[C@H](CCC[P+](c5ccccc5)(c5ccccc5)c5ccccc5)[C@H](OC(C)=O)C(C)(C)[C@@H]4CC[C@@]3(C)[C@]1(C)CC2.[I-] (stereo partly drawn)		6.35		IC50 (L6): 1.65 µg/mL
COC(=O)[C@]12CC[C@@H](C(C)C)[C@@H]1[C@H]1CC[C@@H]3[C@@]4(C)C[C@H](CCC[P+](c5ccccc5)(c5ccccc5)c5ccccc5)[C@H](OC(C)=O)C(C)(C)[C@@H]4CC[C@@]3(C)[C@]1(C)CC2.[Br-]	Active	1.46		
COC(=O)[C@]12CC[C@@H](C(C)C)[C@@H]1[C@H]1CC[C@@H]3[C@@]4(C)C[C@H](CCC[P+](c5ccccc5)(c5ccccc5)c5ccccc5)[C@@H](OC(C)=O)C(C)(C)[C@@H]4CC[C@@]3(C)[C@]1(C)CC2.[Br-]	Active	1.37		
CC(=O)O[C@H]1[C@@H](CCC[P+](c2ccccc2)(c2ccccc2)c2ccccc2)C[C@]2(C)[C@H]3CC[C@@H]4[C@H]5[C@H](C(C)C)CC[C@]5(C(=O)O)CC[C@@]4(C)[C@]3(C)CC[C@H]2C1(C)C			Active	
CC(=O)O[C@H]1[C@@H](CCC[P+](c2ccccc2)(c2ccccc2)c2ccccc2)C[C@]2(C)[C@H]3CC[C@@H]4[C@H]5[C@H](C(C)C)CC[C@]5(C(=O)OCc5ccccc5)CC[C@@]4(C)[C@]3(C)CC[C@H]2C1(C)C			Active	
